Laboratory results from patent US20230149355A1, “COMPOSITIONS AND METHODS FOR MODULATING TRP CHANNEL ACTIVITY” (priority 2020, published 2023).

What was measured:
vagal sensory neurons [1] = test: pERK immunofluorescence of vagal ganglia after microgavage; format: in vivo, zebrafish
Method: To quantify vagal activity by pERK staining, published protocol with slight modification (Randlett et al., 2015) was used. Zebrafish larvae were quickly collected by funneling through a 0.75 mm cell strainer and dropped into a 5 mL petri dish containing ice cold fix buffer (2.5% formalin+0.25% Triton 100). Larvae were fixed overnight at 4° C., then washed 3 times in PT (PBS+0.3% Triton 100), treated with 150 mM Tris-HCl (PH=9) for 15 mins at 70° C., washed with PT and digested with 0.05% trypsin-EDTA on ice for 45 mins. Following digestion, samples were then washed with PT and transferred into block solution [PT+1% bovine serum albumin (BSA, Fisher)+2% normal goat serum (NGS, Sigma)+1% dimethyl sulfoxide (DMSO)]. The primary antibodies [pERK (Cell signaling); tERK (Cell signaling); GFP (Aves Lab)] were diluted in block solution (1:150 for pERK; 1:150 for tERK and 1:500 for GFP) and samples were incubated in 100 μl of primary antibody overnight at 4° C. Following primary antibody incubation, samples were then washed with PT and incubated with secondary antibody overnight at 4° C. Samples were then washed with PBS, mounted in 1% LMA and imaged using a Zeiss 780 upright confocal microscope.
For delivering bacterial or chemicals specifically to the intestine, the established microgavage technique (Cocchiaro and Rawls, 2013) was adopted. […]

zebrafish EECs (Trpa1) = test: In vivo EEC calcium, Tg(neurod1:Gcamp6f) zebrafish; settings: trpa1b-dependent
Method: To record in vivo EEC activity using the Tg(neurod1:Gcamp6f) system, a published protocol with slight modification (Ye et al., 2019) was used. In brief, unanesthetized zebrafish larvae were gently mounted in 3% methylcellulose. Excess water was removed and zebrafish larvae were gently positioned with right side up. Zebrafish were then moved onto an upright Leica M205 FA fluorescence stereomicroscope equipped with a Leica DFC 365FX camera. The zebrafish larvae were allowed to recover for 2 mins before 100 μL of test agent was pipetted directly in front of the mouth region. Images were then recorded every 10 seconds. The data shown in FIG. 2O-R, depicting the EEC responses to E. tarda stimulation, were obtained by mounting unanesthetized zebrafish larvae in 1% low melting agarose. A window (5×5 mm) was cut to expose the head region of the zebrafish. 10 μL of E. tarda culture [˜10^9 Colony Forming Unit (CFU)] were delivered at the zebrafish mouth area. Images were recorded every 10 secs for 20 mins. Image processing and analysis were performed using FIJI software. Time-lapse fluorescence images were first aligned to correct for experimental drift using the plugin “align slices in stack.” Normalized correlation coefficient matching and bilinear interpolation methods for subpixel translation were used for aligning slices (Tseng et al., 2012). The plugin “rolling ball background subtraction” with the rolling ball radius=10 pixels was used to remove the large spatial variation of background intensities. The Gcamp6f fluorescence intensity in the intestinal region was then calculated for each time point. The ratio of maximum fluorescence (Fmax) and the initial fluorescence (F0) was used to measure EEC calcium responses.
For EEC Trpa1 activation using the Optovin platform, zebrafish larvae were treated with 10 μM Optovin overnight. Following Optovin treatment, unanesthetized zebrafish were mounted in 1% LMA and imaged under a 780 upright Zeiss confocal microscope using 20× water objective lenses. For all the experiments, the mid-intestine region was imaged (FIG. 10D). The intestinal epithelium was selected as the region of interest (ROI) (FIG. 10A). Serial images were obtained at 1 s/frame. A 405 nm pulse of light was applied to the ROI at 1 pulse/10 s. For some experiments (FIG. 7D-F, FIG. 10B-G), the images were obtained at 10 s/frame. When measuring Optovin effects on intestinal motility in ret−/−, sox10−/− or tph1b−/− zebrafish larvae, embryos were collected from heterozygous zebrafish. ret−/− zebrafish were identified by lack of ENS and deflated swim bladder (Knight et al., 2011), sox10−/− zebrafish were identified by lack of pigment (Rolig et al., 2017), and tph1b−/− zebrafish were identified by PCR-based genotyping (Tornini et al., 2017).
To determine whether Optovin-UV or ChR2 was sufficient to activate EECs, Tg(neurod1:Gcamp6f) zebrafish were used. […] The Gcamp6f signal was recorded with 488 nm laser intensity less than 0.5. The zebrafish intestinal motility is quantified through recorded image series of zebrafish intestine using the method similar as previously described (Ganz et al., 2018). […] When calculating the mean velocity, only the mean velocity magnitude was calculated, which therefore doesn't account for the movement direction. The MTrackJ FIJI plugin was used to quantify the mean velocity magnitude (Meijering et al., 2012).

vagal sensory neurons [2] = test: In vivo calcium imaging of vagal sensory ganglia after microgavage; parameters: species or system zebrafish; settings: WT; enteric microgavage ~8 nl, AITC 100 mM, indole 1 mM, IAld 1 mM
Method: For delivering bacterial or chemicals specifically to the intestine, the established microgavage technique (Cocchiaro and Rawls, 2013) was adopted. Zebrafish were anesthetized with 1 mg/mL α-Bungarotoxin (α-BTX) and the gavage procedure was performed as previously described using microinjection station (Cocchiaro and Rawls, 2013). For bacteria gavage experiments, 1 ml of overnight bacterial culture was harvested, pelleted, washed with PBS and resuspended in 100 ul PBS.˜8 nl was then delivered into the zebrafish intestine using microgavage. The gavaged zebrafish was then transferred into egg water and mounted in 1% LMA for imaging. For chemical gavage experiments, ˜8 nl of AITC (100 mM), indole (1 mM) and IAld (1 mM) was gavaged into the intestine.
Tg(neurod1:Gcamp6f); Tg(neurod1:TagRFP) zebrafish were used to record vagal sensory ganglia calcium activity in vivo. Zebrafish were anesthetized with 1 mg/mL α-Bungarotoxin (α-BTX) and gavaged with chemical compounds or bacteria as described (Naumann et al., 2016). Zebrafish larvae were mounted in 1% LMA and imaged under a Zeiss 780 upright confocal microscope. Z-stack images of the entire vagal ganglia were collected as serial images at 10 mins/frame and processed in FIJI. Individual vagal sensory neurons were identified and the Gcamp6f to TagRFP fluorescence ratios of individual vagal sensory neurons were calculated.

human ileum = test: Amperometric measurement of 5-HT secretion, human small intestine; settings: 50 μM HC030031
Description: (§1) These experiments using C57BL/6J mice were approved by the Flinders University Animal Welfare Committee (number 965-19) and human ileum tissue was collected from resected small and large intestine from patients that gave written informed consent under the approval of the Southern Adelaide Clinical Human Research Ethics Committee (number 50.07) as previous (Sun et al., 2019a). Mice were euthanized at 8 to 12 weeks by isoflurane overdose followed by cervical dislocation. The duodenum was removed and placed in Krebs solution oxygenated with 95% O2, 5% CO2. A midline incision was made along the duodenum to create a flat sheet, the section was pinned with the mucosal side up in an organ bath lined with Sylgard and containing oxygenated Krebs solution. Serotonin release was measured using amperometry. A carbon-fibre electrode (5-μm diameter, ProCFE; Dagan Corporation, Minneapolis, Minn.), was lowered above the mucosa and 400 mV potential was applied to the electrode causing oxidation of serotonin (Zelkas et al., 2015). […] The change in amplitude due to serotonin oxidation was recorded using an EPC-10 amplifier and Pulse software (HEKA Electronic, Lambrecht/Pfalz, Germany), and samples at 10 kHz and low-pass filtered at 1 kHz. Data was assessed as peak current during each treatment. Data was analyzed comparing all groups using one-way ANOVA with Tukey's post-hoc test. […]

zebrafish EECs = test: In vivo EEC activity, Tg(neurod1:CaMPARI) zebrafish
Description: CaMPARI undergoes permanent green-to-red photoconversion (PC) under 405 nm light when calcium is present. This permanent conversion records the calcium activity for all areas illuminated by PC-light. Red fluorescence intensity correlates with calcium activity during photoconversion (Fosque et al., 2015). In the Tg(neurod1:CaMPARI) zebrafish line, the CaMPARI (calcium-modulated photoactivatable ratiometric integrator) transgene is expressed under control of the −5 kb promoter cloned from the zebrafish neurod1 locus. CaMPARI mRNA is transcribed and the CaMPARI protein is expressed in cells that are able to activate the neurod1 promoter. There are multiple cell types in the zebrafish body that are sufficient to activate the neurod1 promoter, including all EECs in the intestine (Ye et al., 2019). CaMPARI protein is a calcium indicator protein that binds calcium and converts from green fluorescence to red fluorescence in the presence of UV light. This protein is engineered and described in detail in a previous publication (Fosque et al., 2015). This transgenic model was used to measure the level of intracellular calcium in EECs. […]

mouse duodenum = test: Amperometric measurement of 5-HT secretion, mouse small intestine; settings: 50 μM HC030031
Description: as §1

## C=CCN=C=S [AITC, Allyl isothiocyanate]
Vagal sensory neurons [1]; EEC-ablated zebrafish
  Vagal activation (pERK+) in the absence of EECs: abrogated
Vagal sensory neurons [1]; WT, microgavage, compared to PBS
  Number of pERK+ vagal cells: increased
Zebrafish EECs (Trpa1)
  Zebrafish EEC activation (Gcamp6f fluorescence): EEC activation
Vagal sensory neurons [2]
  Gcamp6f fluorescence in a subset of vagal sensory neurons: significantly increased

## CC(C)c1ccc(NC(=O)Cn2cnc3c2c(=O)n(C)c(=O)n3C)cc1 [HC030031]
Human ileum
  Effect on indole-induced 5-HT secretion, human small intestine: blocked
Zebrafish EECs; WT fish, HC030031 280 μM, 2 hours before and during E. tarda stimulation
  Effect on E. tarda's ability to induce EEC activation: significantly inhibited
Mouse duodenum
  Effect on indole-induced 5-HT secretion, mouse small intestine: blocked

## CCCCCCCCCCCC(=O)O [laurate]
Zebrafish EECs; linoleate, oleate, laurate 1.66 mM, butyrate 2 mM, glucose 500 mM, vs water
  Percentage of activated EECs (high red:green CaMPARI ratio): significantly increased
